Laboratory results as given in patent publication US20230014907A1, “INHIBITORS OF APOL1 AND METHODS OF USING SAME” (Vertex Pharmaceuticals Incorporated, priority 2020, published 2023).

Columns and labels:
[1] = biological target: T1, G1 APOL1 (Homo sapiens, UniProt O14791, I384M/S342G); assay: Acute APOL1 Thallium Assay with Inducible Stable Clones of HEK 293 Cells; assay type: cell-based; conditions: HEK 293 inducible stable clones, G1 APOL1; read-out: Thallium Assay (IC50)
T1 construct: expressed in transfected cells
T1 sequence (O14791 28-398 S342G/I384M): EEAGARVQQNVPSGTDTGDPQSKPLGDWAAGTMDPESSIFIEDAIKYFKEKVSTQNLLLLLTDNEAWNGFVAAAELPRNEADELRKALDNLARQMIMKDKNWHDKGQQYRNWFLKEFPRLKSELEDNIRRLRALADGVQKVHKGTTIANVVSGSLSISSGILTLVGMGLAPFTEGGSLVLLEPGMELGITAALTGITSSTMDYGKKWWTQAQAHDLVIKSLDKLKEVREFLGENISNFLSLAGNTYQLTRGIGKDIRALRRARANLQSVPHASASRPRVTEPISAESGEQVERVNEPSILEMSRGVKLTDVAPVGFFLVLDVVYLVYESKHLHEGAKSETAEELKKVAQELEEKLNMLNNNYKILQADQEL
How it was run: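 Pore activity was read as the fluorescence increase from Tl+ entering cells loaded with an AM-ester thallium indicator dye. The cells were tetracycline-inducible HEK293 T-Rex expressing G1 APOL1 (clone DC3.25), induced when plated at 26000 per well and incubated at 37° C.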

[2] = biological target: T2, APOL1 G1 Protein (Homo sapiens, UniProt O14791, I384M/S342G); assay: Trypanosoma brucei brucei Lysis Assay Using APOL1 Recombinant Protein (AlamarBlue viability); assay type: cell-based; conditions: read-out: Trypanosomal Assay (IC50)
T2 sequence (O14791 28-398 S342G/I384M): T1 sequence (O14791 28-398 S342G/I384M)
Description: Trypanosoma brucei brucei is a blood stream parasite to which human, gorillas and baboon are immune due to the presence of the APOL1 protein in their HDL particles. The protein is uptaken by the parasite via the TbHpHb receptor located in its flagellar pocket and is bonded by the Hpr protein contained in the HDL particles which triggers the receptor endocytosis by the parasite.
Following endocytosis, the formed vesicle containing the HDL particle matures from early to late endosome, and subsequently to lysosome. The concomitant pH change in the lumen of the vesicle triggers the insertion of the APOL1 protein into the membrane of the late endosome/lysosome and hereby triggers lysosomal membrane permeabilization and as a further downstream event, trypanosome lysis. Trypanosoma brucei brucei is sensitive to lysis by all three APOL1 variants (G0, G1, and G2).
The Trypanosoma brucei brucei lysis assay is a lysis assay of the parasite using recombinant APOL1 protein variant followed by a fluorescent detection method of viability by the addition of AlamarBlue reagent to the assay well, a general metabolic redox indicator (AlamarBlue assay).
Briefly, the AlamarBlue active compound, the resazurin, a blue, water soluble, non-toxic and cell permeable molecule, which can be followed by absorbance, is reduced by various metabolic pathways into resorufin, a red compound which can be followed by either absorbance or fluorescence. The assay allows the calculation of the percent viability (percent of living Trypanosomes remaining in each well) at the end of a lysis relative to the untreated condition by interpolation of fluorescent values (FLU) on a standard curve with a known amount of seeded trypanosome/well.
Trypanosoma brucei brucei (ATCC, Cat. No. PRA-382) • Lister 427 VSG 221 bloodstream form.
Thaw/Expansion Media (ATCC Medium 2834 Modified HMI-9 Medium)
Assay Media (No Phenol Red/No FBS): Make on Day of Use
Hypoxanthine Stock (100×)-9 (10×)
Equipment • E1-Clip Tip pipette 12 channel adjustable 2-125 μL, Cat. No. 4672070BT • ThermoFisher MultiDrop 384, Cat. No. 5840300 • Multidrop • Agilent Bravo, Cat. No. G5409A • Bravo • SpectraMax M5
Trypanosoma brucei brucei Culture
Step 2, Day 4 • Centrifuge at 800×g for 5 minutes at room temperature. • Resuspend in 1 mL media. • Make a 1:25 fold dilution (10 μL/240 μL media). • Count on a hemocytometer (after adding parasites). • Let sit for 1-2 minutes for the parasites to settle. • Count should be approximately 100 viable motile parasites/16 grid or approximately 25×10^6 parasites/flask. • Passage the parasites by adding 1×10^6 parasites/T75 flask in 20 mL media. • Passage the parasites by adding 2.33×10^6 parasites/T175 flask in 46.6 mL media. • For every T75 flask should make enough for approximately 1.5×384 well assay plates. • For every T175 flask should make enough for approximately 3.8×384 well assay plates.
Step 3, Day 6 • Centrifuge at 800×g for 5 minutes. • Resuspend in 3 mL assay media (No phenol red, no FBS) per 75 starting flask. • Resuspend in 7 mL assay media (No phenol red, no FBS) per 175 flask • Make a 1:25 fold dilution. • Count by hemocytometer. • Every T75 flask set up should have approximately 75×10^6 parasites/flask (verify doubling time=8.7 hours±1 hour). • Every T175 flask set up should have approximately 175×10^6 parasites/flask (verify doubling time=8.7 hours±1 hour). • Require 46×10^6 parasites per 384 well plate (at 120,000 parasites per well). […]

Row | IC50 [1] | SMILES | IC50 [2]
1 | > 1 µM | O=C(CCc1c(-c2ccc(F)cc2)[nH]c2c(F)cc(F)cc12)Nc1nc(C(F)(F)F)co1 [Compound 171] | > 1 µM
2 | < 0.25 µM | O=C(CCc1c(-c2ccc(F)cc2)[nH]c2c(F)cc(F)cc12)NC(CCO)C(=O)O (stereo not drawn) [Compound 188] | 0.25 to 1 µM
3 | < 0.25 µM | OCCc1c(-c2ccc(F)cc2)[nH]c2c(F)cc(F)cc12 [Compound 433, 2-[5,7-difluoro-2-(4-fluorophenyl)-1H-indol-3-yl]ethanol] | < 0.25 µM
4 | 0.25 to 1 µM | CC(=O)NCC(F)(F)Cc1c(-c2ccc(F)cc2)[nH]c2c(F)cc(F)cc12 [Compound 515, N-[3-[5,7-difluoro-2-(4-fluorophenyl)-1H-indol-3-yl]-2,2-difluoro-propyl]acetamide] | 0.25 to 1 µM
5 | > 1 µM | O=C(CCc1c(-c2ccc(F)cc2)[nH]c2c(F)cc(F)cc12)Nc1nccs1 [Compound 167] | > 1 µM
6 | > 1 µM | Cn1nnnc1NC(=O)CCc1c(-c2ccc(F)cc2)[nH]c2c(F)cc(F)cc12 [Compound 165] | > 1 µM
7 | > 1 µM | Cc1cccc(CNC(=O)CCc2c(-c3ccc(F)cc3)[nH]c3c(F)cc(F)cc23)n1 [Compound 183] | > 1 µM
8 | > 1 µM | O=C(CCc1c(-c2ccc(F)cc2)[nH]c2c(F)cc(F)cc12)Nc1ncco1 [Compound 162] | > 1 µM
9 | < 0.25 µM | O=C(/C=C/c1c(-c2ccc(F)cc2)[nH]c2c(F)cc(F)cc12)N[C@@H]1C(=O)NC[C@H]1O [Compound 518, (E)-3-[5,7-difluoro-2-(4-fluorophenyl)-1H-indol-3-yl]-N-[(3S,4R)-4-hydroxy-2-oxo-pyrrolidin-3-yl]prop-2-enamide] | < 0.25 µM
10 | 0.25 to 1 µM | O=C(CCO)NCCc1c(-c2ccc(F)cc2)[nH]c2c(F)cc(F)cc12 [Compound 361] | 0.25 to 1 µM
11 | 0.25 to 1 µM | NCCCc1c(-c2ccc(F)cc2)[nH]c2c(F)cc(F)cc12 [Compound 504, 3-[5,7-difluoro-2-(4-fluorophenyl)-1H-indol-3-yl]propan-1-amine] | < 0.25 µM

Continued, compound first:

Row | SMILES | IC50 [1] | IC50 [2]
12 | C[C@H](CO)NC(=O)CCc1c(-c2ccc(F)cc2)[nH]c2c(F)cc(F)cc12 [Compound 120] | < 0.25 µM | < 0.25 µM
13 | CC(CO)NC(=O)CCc1c(-c2ccc(F)cc2)[nH]c2ccc(F)cc12 (racemic) [Compound 9] | < 0.25 µM | < 0.25 µM
14 | Cc1csc(NC(=O)CCc2c(-c3ccc(F)cc3)[nH]c3c(F)cc(F)cc23)n1 [Compound 125] | > 1 µM | > 1 µM
15 | O=C(CCc1c(-c2ccc(F)cc2)[nH]c2ccc(F)cc12)N[C@@H]1CCC[C@H]1O [Compound 48] | > 1 µM | > 1 µM
16 | NC(=O)CCc1c(-c2ccc(F)cc2)[nH]c2ccc(F)cc12 [Compound 68] | > 1 µM | > 1 µM
17 | O=C(CCc1c(-c2ccc(F)cc2)[nH]c2c(F)cc(F)cc12)NC1CCCC1=O (stereo not drawn) [Compound 101] | < 0.25 µM | < 0.25 µM
18 | O=C(CCc1c(-c2ccc(F)cc2)[nH]c2ccc(F)cc12)NCC1(O)CC1 [Compound 82] | > 1 µM | > 1 µM
19 | NC1CCCN(C(=O)CCc2c(-c3ccc(F)cc3)[nH]c3ccc(F)cc23)C1 (stereo not drawn) [Compound 56] | > 1 µM | > 1 µM
20 | CNC(=O)C(C)NC(=O)CCc1c(-c2ccc(F)cc2)[nH]c2c(F)cc(F)cc12 (racemic) [Compound 100] | 0.25 to 1 µM | 0.25 to 1 µM
21 | O=C(CCc1c(-c2ccc(F)cc2)[nH]c2ccc(F)cc12)NCC1COC1 [Compound 43] | > 1 µM | > 1 µM
22 | COCC1(NC(=O)CCc2c(-c3ccc(F)cc3)[nH]c3c(F)cc(F)cc23)CC1 [Compound 102] | 0.25 to 1 µM | 0.25 to 1 µM
23 | O=C(CCc1c(-c2ccc(F)cc2)[nH]c2c(F)cc(F)cc12)N1CCC[C@@H]1CO [Compound 117] | > 1 µM | 0.25 to 1 µM
24 | O=C(CCc1c(-c2ccc(F)cc2)[nH]c2ccc(F)cc12)N1CCCC1CO (stereo not drawn) [Compound 71] | > 1 µM | > 1 µM
